Entries after “also recorded” stand apart in the source; their conditions may differ. Like-named read-outs stand apart in the source and are kept apart here.
Key:
[1] = Amcenestrant plasma pharmacokinetics (LC-MS/MS, non-compartmental analysis); assay type: in vivo, human; settings: for AUC(0-t) / Cmax / Tmax: human, plasma, oral
Method: To evaluate pharmacokinetics in Part A, venous blood samples were collected pre-dose and at regular intervals on cycle 1, day 1 (up to 48 h), on day 3 (up to 24 h), and on day 22 (up to 24 h). […] The validated range was 5 ng/mL to 5000 ng/mL.
In Part B, venous blood samples were collected pre-dose and at regular intervals on cycle 1, day 1 (up to 24 h), and on day 22 (up to 24 h).
NCA was performed using Phoenix® software.

[2] = 24 h urine fraction, renal elimination of amcenestrant; assay type: in vivo, human; settings: Part B, QD administration
[3] = tested on: CYP3A; experiment: 4β-hydroxycholesterol ratio, induction/inhibition effect on CYP3A; assay type: in vivo, human; settings: ≥200 mg QD
[4] = tested on: Ki67; experiment: Paired tumor biopsy IHC, Ki67 positive cells; assay type: in vivo, human; settings: cycle 2, day 28; n = 7; range −30 to +30%
Method: Staining was evaluated in tumor cells only.
Results were analyzed using descriptive statistics.

[5] = tested on: ER+/HER2− advanced breast cancer; experiment: Antitumor activity per RECIST v1.1 (ORR, CBR, best overall response); assay type: in vivo, human; settings: Part A, local review, n = 16
[6] = tested on: ER; parameters: method as in PMID 31721572; settings: in vitro, preclinical, cited from earlier work
[7] = Part A, repeated QD, Cycle 1 Day 22, fasting, 20 mg, N 3
[8] = Part A, repeated QD, Cycle 1 Day 22, fasting, 150 mg, N 2
[9] = Part A, repeated QD, Cycle 1 Day 22, fasting, 200 mg, N 3
[10] = Part A, repeated QD, Cycle 1 Day 22, fasting, 400 mg, N 3
[11] = Part A, repeated QD, Cycle 1 Day 22, fasting, 600 mg, N 3
[12] = Part B, 400 mg QD, Day 22, N 13

For `O=C(O)c1ccc2c(c1)CCCC(c1ccc(Cl)cc1Cl)=C2c1ccc(O[C@H]2CCN(CCCF)C2)cc1` [amcenestrant, 6-(2,4-Dichlorophenyl)−5-[4-[(3S)−1-(3-fluoropropyl)pyrrolidin-3-yl]oxyphenyl]−8,9-dihydro-7H-benzo[7]annulene-2-carboxylic acid], the “total variability of exposure” value ([1]; 400 mg dose) was under 40%, the “dose proportionality of exposure” value ([1]; 20–600 mg QD, single or multiple administrations) was “did not deviate significantly from dose proportionality; also recorded: exposure increased proportionally with doses up to 600 mg” and the “accumulation on day 22” value ([1]; Part A, doses ≥400 mg QD) was “No accumulation was observed”. The “delay of median tmax by food” value ([1]; Part A, moderate fat breakfast) was “≈ 1 h”, the “food effect on exposure” value ([1]; Part A, moderate fat breakfast) was “modestly increased exposure” and the “CLss/F, Geometric mean (CV%)” value [1, 7] was 14.8 (75.8) L/h. For the same molecule, the “CLss/F, Mean ± SD” value [1, 7] was 18.0 ± 13.7 L/h, the “Ctrough, Mean ± SD” value [1, 7] was 12.6 ± 13.6 ng/mL and the “CLss/F, Geometric mean (CV%)” value [1, 8] was 9.99 (46.3) L/h. The “CLss/F, Mean ± SD” value [1, 8] was 10.6 ± 4.89 L/h, the “Ctrough, Geometric mean (CV%)” value [1, 8] was 134 (15.7) ng/mL and the “Ctrough, Mean ± SD” value [1, 8] was 135 ± 21.2 ng/mL. For the same molecule, the “CLss/F, Geometric mean (CV%)” value [1, 9] was 14.9 (28.0) L/h, the “CLss/F, Mean ± SD” value [1, 9] was 15.3 ± 4.30 L/h and the “Ctrough, Geometric mean (CV%)” value [1, 9] was 115 (73.0) ng/mL. For the same molecule, the “Ctrough, Mean ± SD” value [1, 9] was 140 ± 102 ng/mL, the “CLss/F, Geometric mean (CV%)” value [1, 10] was 13.5 (95.7) L/h and the “CLss/F, Mean ± SD” value [1, 10] was 18.1 ± 17.4 L/h. The “Ctrough, Geometric mean (CV%)” value [1, 10] was 245 (79.3) ng/mL, the “Ctrough, Mean ± SD” value [1, 10] was 397 ± 315 ng/mL and the “CLss/F, Geometric mean (CV%)” value [1, 11] was 14.4 (26.9) L/h. The “CLss/F, Mean ± SD” value [1, 11] was 14.7 ± 3.96 L/h, the “Cmax, Geometric mean (CV%)” value [1, 11] was 5510 (17.3) ng/mL and the “Ctrough, Geometric mean (CV%)” value [1, 11] was 350 (88.2) ng/mL. For the same molecule, the “Ctrough, Mean ± SD” value [1, 11] was 449 ± 396 ng/mL, the “Cmax, Geometric mean (CV%)” value ([1]; Part B, 400 mg QD, Day 1, N 16) was 5460 (46.8) ng/mL and the “Tlag, Median” value ([1]; Part B, 400 mg QD, Day 1, N 16) was 0 h. For the same molecule, the “CLss/F, Geometric mean (CV%)” value [1, 12] was 9.90 (41.0) L/h, the “CLss/F, Mean ± SD” value [1, 12] was 10.6 ± 4.35 L/h and the “apparent total clearance from plasma at steady state (CLss/F)” value ([1]; Part B, 400 mg QD, day 22) was 10.6 L/h. For the same molecule, the “coefficient of variation for AUC0-24h” value ([1]; Part B, 400 mg QD, day 22) was 37.5%, the “coefficient of variation for Cmax” value ([1]; Part B, 400 mg QD, day 22) was 28.0% and the AUC(0-t) ([1]; 400 mg, Part B, 400 mg QD, Day 1, N 16, read-out: AUC0-24, Geometric mean (CV%)) was 44800 ng·h/mL. The AUC(0-t) ([1]; 400 mg, Part B, 400 mg QD, Day 1, N 16, read-out: AUC0-24, Mean ± SD) was 50900 ± 26000 ng·h/mL, the Cmax ([1]; 400 mg, Part B, 400 mg QD, Day 1, N 16, read-out: Cmax, Mean ± SD) was 6020 ± 2810 ng/mL and the AUC(0-t) ([1]; 400 mg, Part B, 400 mg QD, Day 22, N 13, read-out: AUC0-24, Mean ± SD) was 43200 ± 16200 ng·h/mL. For the same molecule, the Cmax ([1]; 400 mg, Part B, 400 mg QD, Day 22, N 13, read-out: Cmax, Geometric mean (CV%)) was 4220 ng/mL, the Cmax ([1]; 400 mg, Part B, 400 mg QD, Day 22, N 13, read-out: Cmax, Mean ± SD) was 4380 ± 1230 ng/mL and the Tmax ([1]; Part A, single dose day 1, starting from the 150-mg dose, read-out: median time to maximum concentration [tmax]) was about 3 h. The Tmax ([1]; Part B, 400 mg QD, Day 1, N 16, read-out: tmax, Median) was 3.98 h, the “amcenestrant excreted in urine over the 24-h interval” value [2] was < 0.1 % of the administered dose and the “effect on CYP3A liver enzyme activity” value [3] was “can induce cytochrome P450 (CYP) 3 A liver enzyme activity”. The “median change from screening in percentage of Ki67 positive cells” value [4] was −8%, the “objective response rate (ORR)” value [5] was 6.3% and the “stable disease (SD), patients” value [5] was 50%. For the same molecule, the ER degradation efficacy [6] was 98% and the EC50 ([6]; read-out: ER degradation potency) was 200 pM.
